Measurements taken from US6602511B2, “Microemulsions for use as vehicles for administration of active compounds” (AstraZeneca AB, priority 1995, dated 2003).
Converted amounts (≈) assume the structure as drawn.

Legend:
physchem = conditions: aqueous with cosolvent or surfactant or cyclodextrin
Procedure: (§1) Different amounts of the substances were added to 1 ml samples of the microemulsion placed in glass vials. The samples were rotated for 48 hours to allow a complete wetting of the solid substance. The samples were than kept in a waterbath at 25° C. for at least one week before inspection. The samples were inspected for any solid substance or phase separation and the maximum solubility was defined as the range between the last sample in each series without any trace of solids or phase separation, and the first sample with remaining and undissolved substance or a phase separation.

[1] = Solubility of sparingly soluble substances in water, microemulsion and PEG 400 (50%)
Procedure: as §1

| solubility (physchem) [µg/mL] | solubility ([1]; PEG 400 (50%) solution, aqueous with cosolvent or surfactant or cyclodextrin) [µg/mL] | Sol. in water ([1]; in water) [mg/L] | sol. in microemulsion 1a ([1]; microemulsion 1a, 25° C., at least one week, range between last clear and first undissolved sample) [mg/L] | sol. in microemulsion 1b ([1]; microemulsion 1b, 25° C., at least one week, range between last clear and first undissolved sample) [mg/L] | amount possible to administrate using the microemulsion compared to a 50% solution PEG 400 ([1]; microemulsion vs 50% solution PEG 400) | Structure (SMILES) |
| --- | --- | --- | --- | --- | --- | --- |
| 700 (≈ 1820 µM) | – | – | – | – | – | CCOC(=O)C1=C(C)NC(C)=C(C(=O)OC)C1c1cccc(Cl)c1Cl (stereo not drawn) [Felodipine, ethyl methyl 4-(2,3-dichlorophenyl)-1,4-dihydro-2,6-dimethyl-3,5-pyridinedicarboxylate] |
| – | 200 (≈ 651 µM) | 2.0 | 40000 to 50000 | 60000 to 75000 | over 100 times | CCOc1c(C)cc2c(c1C)[C@@]1(C)Cc3ccccc3[C@@]1(C)N2 (relative stereo) [The indeno indole, cis-4b,5,9b,10-tetrahydro-4b,7,9,9b-tetramethyl-8-ethoxy-indeno(1,2-b)indole] |
